Measurements: paper PMC11522673 (Communications Biology, 2024)

Columns and labels:
PburDRR = assay: LC-MS product formation, substrate-inhibition fit; assay type: biochemical, Papaver burseri; details: reduction; 500 μM NADPH; Bis-tris, optimized pH and temperature (Table S12)
PlasDRR(REPI) = assay: LC-MS product formation, substrate-inhibition fit; assay type: biochemical, Papaver lasiothrix; details: reduction; 500 μM NADPH; Bis-tris, optimized pH and temperature (Table S12)
PglaDRR = assay: LC-MS product formation, substrate-inhibition fit; assay type: biochemical, Papaver glaucum; details: reduction; 500 μM NADPH; Bis-tris, optimized pH and temperature (Table S12)
PapoCOR1 = assay: LC-MS product formation, Michaelis-Menten fit; assay type: biochemical, Papaver apokrinomenon; details: reduction; 1 mM NADPH; Bis-tris, optimized pH and temperature (Table S12)
PtriCOR3 = assay: LC-MS product formation, Michaelis-Menten fit; assay type: biochemical, Papaver triniifolium; details: reduction; 1 mM NADPH; Bis-tris, optimized pH and temperature (Table S12)
PsomCOR = molecular target: T1, PsomCOR (Papaver somniferum, UniProt Q9SQ68); assay: LC-MS product formation, Michaelis-Menten fit; details: reduction; 1 mM NADPH; Bis-tris, optimized pH and temperature (Table S12)
T1 sequence (Q9SQ68 1-321): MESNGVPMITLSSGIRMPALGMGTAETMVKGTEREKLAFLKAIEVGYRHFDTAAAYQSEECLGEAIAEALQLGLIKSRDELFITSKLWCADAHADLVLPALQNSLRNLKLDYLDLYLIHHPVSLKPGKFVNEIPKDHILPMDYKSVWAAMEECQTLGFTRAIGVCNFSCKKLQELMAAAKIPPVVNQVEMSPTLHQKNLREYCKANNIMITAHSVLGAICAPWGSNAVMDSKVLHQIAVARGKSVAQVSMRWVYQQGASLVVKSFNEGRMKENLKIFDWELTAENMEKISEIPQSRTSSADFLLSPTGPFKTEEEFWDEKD

PglaCOR = assay: LC-MS product formation, Michaelis-Menten fit; assay type: biochemical, Papaver glaucum; details: reduction; 1 mM NADPH; Bis-tris, optimized pH and temperature (Table S12)
[1] = substrate: COc1ccc(CC2=[N+](C)CCc3cc(OC)c(O)cc32)cc1O; assay: LC-MS product formation, substrate-inhibition fit; assay type: biochemical, Papaver somniferum; details: reduction; 500 μM NADPH; Bis-tris, optimized pH and temperature (Table S12)

COc1ccc(CC2=[N+](C)CCc3cc(OC)c(O)cc32)cc1O [1,2-dehydroreticuline]
Km (PburDRR): 5.5 ± 1 µM
Km (PlasDRR(REPI)): 12.3 ± 2.2 µM
Km (PglaDRR): 16.4 ± 2.3 µM

COc1ccc2c3c1O[C@H]1C(=O)C=C[C@H]4[C@@H](C2)N(C)CC[C@]314 [codeinone]
Km (PapoCOR1): 117 ± 17.8 µM
Km (PtriCOR3): 10 ± 0.9 µM
Km (PsomCOR): 17.4 ± 1.6 µM
Km (PglaCOR): 78.8 ± 5.6 µM

B1: PsomDRR(REPI) (Papaver somniferum) (protein)
chain: MESSGVPVITLGSGKVMPVLGMGTFEKVGKGSERERLAILKAIEVGYRYFDTAAAYETEEVLGEAIAEALQLGLVKSRDELFISSMLWCTDAHADRVLLALQNSLRNLKLEYVDLYMLPFPASLKPGKITMDIPEEDICRMDYRSVWAAMEECQNLGFTKSIGVSNFSCKKLQELMATANIPPAVNQVEMSPAFQQKKLREYCNANNILVSAISVLGSNGTPWGSNAVLGSEVLKKIAMAKGKSVAQVSMRWVYEQGASLVVKSFSEERLRENLNIFDWELTKEDHEKIGEIPQCRILSAYFLVSPNGPFKSQEELWDDEA
Km [1]: 7.3 ± 2.2 µM
kcat [1]: 5.36 ± 1.71 s⁻¹
kcat/Km [1]: 735000 M⁻¹ s⁻¹
